Measurements published in PubChem BioAssay AID330 (DTP/NCI, 2004).
Where “and” joins values, the source holds several entries; their conditions need not be identical. Equal entries are not always repeated. Inconclusive results and toxic doses are left out. How the source made its calls: active means survival T/C of 150% or more; inactive means T/C below 125% in these data.

Test system: P388 leukemia ip, CD2F1 mice, survival T/C
Assay: NCI In Vivo Anticancer Drug Screen. Data for tumor model P388 Leukemia (intraperitoneal) in CD2F1 (CDF1) mice
Conditions: endpoint: median survival time, higher = longer survival
Outline: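 Mice carrying the transplanted tumor received test compound or vehicle. Survival was recorded in each group, and the value is the treated-group measurement divided by that of the vehicle-treated control group.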

[1] = dose: 50.0 mg/kg/injection, schedule: Q01DX005 (ip), vehicle: Klucel (hydroxypropylcellulose) (HPC)
[2] = dose: 50.0 mg/kg/injection, schedule: Q01DX009 (ip), vehicle: saline
[3] = dose: 50.0 mg/kg/injection, schedule: Q01DX005 (ip), vehicle: saline with Tween-80
[4] = dose: 100.0 mg/kg/injection, schedule: Q01DX009 (ip), vehicle: saline with Tween-80
[5] = dose: 200.0 mg/kg/injection, schedule: Q01DX009 (ip), vehicle: saline with Tween-80
[6] = dose: 100.0 mg/kg/injection, schedule: Q01DX005 (ip), vehicle: saline with Tween-80
[7] = dose: 200.0 mg/kg/injection, schedule: Q01DX005 (ip), vehicle: saline with Tween-80
[8] = dose: 50.0 mg/kg/injection, schedule: Q01DX009 (ip), vehicle: saline with Tween-80
[9] = dose: 60.0 mg/kg/injection, schedule: Q01DX005 (ip), vehicle: saline with Tween-80
[10] = dose: 120.0 mg/kg/injection, schedule: Q01DX005 (ip), vehicle: saline with Tween-80
[11] = dose: 25.0 mg/kg/injection, schedule: Q01DX005 (ip), vehicle: saline with Tween-80

Measured: T/C

CC1=C(O)C(=O)C(c2c(C)cc(C)c(Br)c2C)=C(O)C1=O
inactive: dose: 6.25 mg/kg/injection, schedule: Q01DX005 (ip), vehicle: Klucel (hydroxypropylcellulose) (HPC) 100 % of control and 104 % of control | dose: 12.5 mg/kg/injection, schedule: Q01DX005 (ip), vehicle: Klucel (hydroxypropylcellulose) (HPC) 104 % of control and 117 % of control and 118 % of control | dose: 25.0 mg/kg/injection, schedule: Q01DX005 (ip), vehicle: Klucel (hydroxypropylcellulose) (HPC) 104 % of control and 117 % of control | [1] 116 % of control and 94 % of control

O=C(O)C1Cc2c([nH]c3ccccc23)C(CCCCO)N1 (stereo not drawn)
inactive: dose: 6.25 mg/kg/injection, schedule: Q01DX009 (ip), vehicle: Klucel (hydroxypropylcellulose) (HPC) 101 % of control | dose: 12.5 mg/kg/injection, schedule: Q01DX009 (ip), vehicle: Klucel (hydroxypropylcellulose) (HPC) 99 % of control

CN1C2CCC1CC(OC(=O)CBr)C2 (stereo not drawn)
inactive: dose: 12.5 mg/kg/injection, schedule: Q01DX009 (ip), vehicle: saline 115 % of control | dose: 25.0 mg/kg/injection, schedule: Q01DX009 (ip), vehicle: saline 107 % of control | [2] 117 % of control and 120 % of control

CC1(C)CN=C(C2=C(O)c3ccccc3C2=O)C1
inactive: dose: 100.0 mg/kg/injection, schedule: Q04DX003 (ip), vehicle: saline with Tween-80 91 % of control | dose: 200.0 mg/kg/injection, schedule: Q04DX003 (ip), vehicle: saline with Tween-80 93 % of control | dose: 400.0 mg/kg/injection, schedule: Q04DX003 (ip), vehicle: saline with Tween-80 90 % of control

CC1=C(C)C(=O)C(CCl)=[C-]C1=O.[Co].[c-]1[c-][c-][cH-][c-]1
inactive: [3] 123 % of control

CCCCOP(=O)(Nc1ccccc1)OCCCC
inactive: [4] 110 % of control | [5] 112 % of control | dose: 400.0 mg/kg/injection, schedule: Q01DX009 (ip), vehicle: saline with Tween-80 110 % of control

C=c1[nH]c(=O)c(=C)[nH]c1=O
inactive: dose: 12.5 mg/kg/injection, schedule: Q01DX009 (ip), vehicle: other 94 % of control | dose: 25.0 mg/kg/injection, schedule: Q01DX009 (ip), vehicle: other 90 % of control | dose: 50.0 mg/kg/injection, schedule: Q01DX009 (ip), vehicle: other 99 % of control | dose: 100.0 mg/kg/injection, schedule: Q01DX009 (ip), vehicle: other 106 % of control

CC(O)Cn1nnc2ccccc2c1=O (stereo not drawn)
inactive: [3] 107 % of control | [6] 105 % of control | [7] 112 % of control

CC(=O)OC1CC(O)C23COC(O)C1C2CC(O)C1(C)C3C(=O)CC2(C)C(c3ccoc3)CC3OC321 (stereo not drawn)
inactive: dose: 0.25 mg/kg/injection, schedule: Q01DX009 (ip), vehicle: Klucel (hydroxypropylcellulose) (HPC) 103 % of control | dose: 0.5 mg/kg/injection, schedule: Q01DX009 (ip), vehicle: Klucel (hydroxypropylcellulose) (HPC) 99 % of control | dose: 1.0 mg/kg/injection, schedule: Q01DX009 (ip), vehicle: Klucel (hydroxypropylcellulose) (HPC) 111 % of control | dose: 2.0 mg/kg/injection, schedule: Q01DX009 (ip), vehicle: Klucel (hydroxypropylcellulose) (HPC) 90 % of control

O=C(OCC(O)CO)c1c(Cl)c(Cl)c(Cl)c(Cl)c1-c1c2cc(I)c(=O)c(I)c-2oc2c(I)c(O)c(I)cc12 (stereo not drawn)
inactive: dose: 60.0 mg/kg/injection, schedule: Q01DX005 (ip), vehicle: saline 94 % of control | dose: 120.0 mg/kg/injection, schedule: Q01DX005 (ip), vehicle: saline 100 % of control | dose: 240.0 mg/kg/injection, schedule: Q01DX005 (ip), vehicle: saline 102 % of control

O=C(C=C(C(F)(F)F)C(F)(F)F)c1c2ccccc2cc2ccccc12
inactive: dose: 0.78 mg/kg/injection, schedule: Q01DX009 (ip), vehicle: DMSO 91 % of control | dose: 1.56 mg/kg/injection, schedule: Q01DX009 (ip), vehicle: DMSO 98 % of control | dose: 3.12 mg/kg/injection, schedule: Q01DX009 (ip), vehicle: DMSO 87 % of control and 89 % of control

Nc1c(S(=O)(=O)O)cc(Br)c2c1C(=O)c1ccccc1C2=O
inactive: [3] 98 % of control | [6] 98 % of control | [7] 93 % of control

Cn1nc(-c2cccc(F)c2)[n+](C)n1
inactive: dose: 50.0 mg/kg/injection, schedule: Q01DX005 (ip), vehicle: saline 102 % of control | dose: 100.0 mg/kg/injection, schedule: Q01DX005 (ip), vehicle: saline 98 % of control

CC1(C)OC2C(CO)OC(n3ccc(=O)[nH]c3=O)C2O1 (stereo not drawn)
inactive: dose: 6.25 mg/kg/injection, schedule: Q01DX009 (ip), vehicle: saline with Tween-80 107 % of control | dose: 12.5 mg/kg/injection, schedule: Q01DX009 (ip), vehicle: saline with Tween-80 109 % of control | dose: 25.0 mg/kg/injection, schedule: Q01DX009 (ip), vehicle: saline with Tween-80 100 % of control and 110 % of control and 120 % of control | [8] 108 % of control and 92 % of control and 97 % of control | [4] 90 % of control

CCNc1cc2oc(=O)cc(C(F)(F)F)c2cc1C
inactive: [1] 97 % of control | dose: 100.0 mg/kg/injection, schedule: Q01DX005 (ip), vehicle: Klucel (hydroxypropylcellulose) (HPC) 100 % of control | dose: 200.0 mg/kg/injection, schedule: Q01DX005 (ip), vehicle: Klucel (hydroxypropylcellulose) (HPC) 99 % of control

CC(=O)NS(=O)(=O)c1ccc(N=CC2C(=O)N(c3ccccc3)N(c3ccccc3)C2=O)cc1
inactive: dose: 25.0 mg/kg/injection, schedule: Q01DX001 (ip), vehicle: Klucel (hydroxypropylcellulose) (HPC) 86 % of control | dose: 50.0 mg/kg/injection, schedule: Q01DX001 (ip), vehicle: Klucel (hydroxypropylcellulose) (HPC) 91 % of control | dose: 100.0 mg/kg/injection, schedule: Q01DX001 (ip), vehicle: Klucel (hydroxypropylcellulose) (HPC) 92 % of control

COC(=O)C1(CC(=O)c2ccc(Cl)cc2Cl)NC(=S)NC(=O)C1C#N (stereo not drawn)
inactive: [9] 91 % of control | [10] 92 % of control

COC(=O)Nc1nc2ccc(C(O)(c3ccccc3)c3cccs3)cc2[nH]1 (stereo not drawn)
inactive: [11] 95 % of control | [3] 95 % of control | [6] 99 % of control

CCOC(=O)C(C)(C)Br
inactive: dose: 100.0 mg/kg/injection, schedule: Q01DX009 (ip), vehicle: saline sonified 105 % of control | dose: 200.0 mg/kg/injection, schedule: Q01DX009 (ip), vehicle: saline sonified 105 % of control | dose: 400.0 mg/kg/injection, schedule: Q01DX009 (ip), vehicle: saline sonified 115 % of control

Cc1cc(C(=O)NC(C)c2ccc(S(=O)(=O)NC(=O)NC3CCCCC3)cc2)no1 (stereo not drawn)
inactive: dose: 50.0 mg/kg/injection, schedule: Q04DX002 (ip), vehicle: Klucel (hydroxypropylcellulose) (HPC) 99 % of control | dose: 100.0 mg/kg/injection, schedule: Q04DX002 (ip), vehicle: Klucel (hydroxypropylcellulose) (HPC) 100 % of control | dose: 200.0 mg/kg/injection, schedule: Q04DX002 (ip), vehicle: Klucel (hydroxypropylcellulose) (HPC) 97 % of control

O=[N+]([O-])c1ccc(Sc2c3ccccc3nc3ccccc23)cn1
inactive: [11] 104 % of control | [3] 109 % of control | [6] 104 % of control | [7] 101 % of control

COc1cccc(OC)c1N(CCO)CCO
inactive: [8] 101 % of control | [4] 95 % of control | [5] 106 % of control

C=CCN(CC=C)c1nc(N)nc(N)n1
inactive: [2] 96 % of control | dose: 100.0 mg/kg/injection, schedule: Q01DX009 (ip), vehicle: saline 90 % of control | dose: 200.0 mg/kg/injection, schedule: Q01DX009 (ip), vehicle: saline 121 % of control

CC(=NCc1ccccc1)c1c(C)cc(=O)n(-c2ccccc2)c1O
inactive: [9] 96 % of control | [10] 97 % of control | dose: 240.0 mg/kg/injection, schedule: Q01DX005 (ip), vehicle: saline with Tween-80 89 % of control
